The values below come from paper PMC10057847, “Precision engineering of biological function with large-scale measurements and machine learning” (PLOS ONE, 2023).

Holding throughout (assay): In vivo IPTG dose-response of LacI-regulated eYFP expression from the pVER plasmid in E. coli grown in rich M9 medium at 37 °C, measured by flow cytometry and fitted to the Hill equation by Bayesian MCMC (posterior mean and SD).
Common to all, as to type: cell-based, E. coli MG1655Δlac
Settings in all cases: read-out: log_ec50 (base-10 logarithm of EC50 in μmol/L) (converted)
On the technique in general: A flow cytometer gives signals particle by particle.

Assay [1] addresses T1, pVER-IPTG-075 (also pVER-IPTG-138) (Escherichia coli, UniProt P03023, A81S/E100K/L148V/Q60R/S221N/S28G/T34M/V271L).
T1 construct: gene lacI; LacI expressed from pVER plasmid
How it is done:
(§1) All reported measurements were completed using E. coli strain MG1655Δlac, in which the lactose operon of E. coli strain MG1655 (ATCC #47076) was replaced with the bleomycin resistance gene from Streptoalloteichus hindustanus (Shble).
(§2) Dose-response curves were measured with flow cytometry using E. coli MG1655Δlac transformed with variants of the pVER plasmid, described previously. The plasmid contained different variants of the lacI coding DNA sequence (CDS), as described in the text, and an expression cassette with enhanced yellow fluorescent protein (eYFP) under the control of the lactose operator (lacO). The lacI CDS was verified with Sanger sequencing for each variant.
(§3) All cultures were grown in a rich M9 media (3 g/L KH2PO4, 6.78 g/L Na2HPO4, 0.5 g/L NaCl, 1 g/L NH4Cl, 0.1 mmol/L CaCl2, 2 mmol/L MgSO4, 4% glycerol, and 20 g/L casamino acids) supplemented with 50 μg/mL kanamycin.
(§4) • Prepare first growth plate, with 450 μL rich M9 media in each well. • Pipette 50 μL of starter culture into each well in rows B-G of the plate (leaving rows A and H blank). • Use a E. coli containing a different lacI variant for each row. • Seal first growth plate with gas permeable membrane. • Incubate plate in plate reader for 12 h to 14 h. • Grow to stationary to provide a reproducible starting point for each measurement. • Prepare second growth plate with 490 μL in each well. • Dilution series of isopropyl-β-D-thiogalactopyranoside (IPTG): 11 columns of a 2-fold serial dilution gradient and one column with zero IPTG. • Ten minutes before the end of the incubation cycle for the first growth plate, move the second growth plate to a heated station set to 47°C. • Ten minutes at 47°C will pre-warm the media in the plate to 37°C. • De-seal the first growth plate (after completion of the stationary-phase incubation cycle). • Pipette 10 μL from each well in the first growth plate to the corresponding well in the second growth plate. • 50-fold dilution; using a 96-channel pipetting head. • Seal second growth plate with gas permeable membrane. • Incubate second growth plate in plate reader for 160 minutes. • Sufficient for approximately 10-fold increase in cell density or 3.3 doublings. • Prepare third growth plate with 450 μL in each well. • Same dilution series as in second growth plate. • Ten minutes before the end of the incubation cycle for the second growth plate, move the third growth plate to a heated station set to 47°C. • De-seal the second growth plate (after completion of the 160 minute incubation cycle). • Pipette 50 μL from each well in the second growth plate to the corresponding well in the third growth plate. • 10-fold dilution; using a 96-channel pipetting head. • Seal third growth plate with gas permeable membrane. • Incubate third growth plate in plate reader for 160 minutes. • Prepare flow cytometry sample plate (round-bottom 96-well plate, Falcon, 351177). • Each well in rows B-G: 195 μL 1x PBS with 170 μg/mL chloramphenicol (Fisher BioReagents, cat. #BP904-100). • Rows A and H: PBS blanks, focusing fluid blanks, and space for calibration bead sample • At the end of the incubation cycle for the third growth plate, pipette 5 μL from each well to the corresponding well in the flow cytometry sample plate.
(§5) Flow cytometry samples were measured with an Attune NxT flow cytometer equipped with a 96-well plate autosampler using a 488 nm excitation laser and a 530 nm ± 15 nm bandpass emission filter. Blank samples were measured with each batch of cell measurements, and an automated gating algorithm was used to discriminate cell events from non-cell events. Fluorescence calibration beads (Spherotech, part no. RCP-30-20A) were also measured with each batch of samples to facilitate calibration of flow cytometry data to molecules of equivalent fluorescein (MEF). […]

The next assay concerns the target T2, pVER-IPTG-082 (Escherichia coli, UniProt P03023, G200A/Q209R/Q317L/R263H/S190C/V94M).
T2 construct: gene lacI; LacI expressed from pVER plasmid
How it is done:
as §1, §2, §3, §4, §5

In a further assay the target is T3, pVER-IPTG-081 (Escherichia coli, UniProt P03023, M347V/P285S/S308P/V301M).
T3 construct: gene lacI; LacI expressed from pVER plasmid
The method, then: as §1, §2, §3, §4, §5

Another assay has as its target T4, pVER-IPTG-004(V80L) (Escherichia coli, UniProt P03023, A87P/E357G/V301M/V80L).
T4 construct: gene lacI; LacI expressed from pVER plasmid
How it is done: as §1, §2, §3, §4, §5

Another assay has as its target T5, pVER-IPTG-004(S70R) (Escherichia coli, UniProt P03023, A87P/E357G/S70R/V301M).
T5 construct: gene lacI; LacI expressed from pVER plasmid
The method, then: as §1, §2, §3, §4, §5

The target of another assay is T6, pVER-IPTG-002 (Escherichia coli, UniProt P03023, M254I/S158R/T154I/V238D/V264I/V96E).
T6 construct: gene lacI; LacI expressed from pVER plasmid
How it is done:
as §1, §2, §3, §4, §5

Another assay addresses T7, pVER-IPTG-009 (Escherichia coli, UniProt P03023, I210L/I283N/M254T/N157D/P76Q/Q181H/V150A).
T7 construct: gene lacI; LacI expressed from pVER plasmid
How it is done: as §1, §2, §3, §4, §5

The next assay has as its target T8, pVER-IPTG-079 (Escherichia coli, UniProt P03023, A116T/S190C/T141I/V99E).
T8 construct: gene lacI; LacI expressed from pVER plasmid
How it is done: as §1, §2, §3, §4, §5

A further assay addresses T9, pVER-IPTG-010 (Escherichia coli, UniProt P03023, A72V/I210F/K84N/M254T/T336S).
T9 construct: gene lacI; LacI expressed from pVER plasmid
The method, then:
as §1, §2, §3, §4, §5

For another assay, the target named is T10, pVER-IPTG-005 (Escherichia coli, UniProt P03023, A176S/E172D/F226Y/G91D/R101G/S158C/T167M/T276S/T299A/V94A).
T10 construct: gene lacI; LacI expressed from pVER plasmid
How it is done: as §1, §2, §3, §4, §5

Another assay concerns the target T11, pVER-IPTG-002(V136E) (Escherichia coli, UniProt P03023, M254I/S158R/T154I/V136E/V238D/V264I/V96E).
T11 construct: gene lacI; LacI expressed from pVER plasmid
The method, then: as §1, §2, §3, §4, §5

The next assay concerns the target T12, pVER-IPTG-007 (Escherichia coli, UniProt P03023, A199V/D88Y/K84E/L342M/L90P/Q153L/R351P/S358R).
T12 construct: gene lacI; LacI expressed from pVER plasmid
How it is done:
as §1, §2, §3, §4, §5

“And” between values parts separate entries of the source, which are not always exact repeats. Equal values may be shown once.

T1 sequence (P03023 whole entry S28G/T34M/Q60R/A81S/E100K/L148V/S221N/V271L): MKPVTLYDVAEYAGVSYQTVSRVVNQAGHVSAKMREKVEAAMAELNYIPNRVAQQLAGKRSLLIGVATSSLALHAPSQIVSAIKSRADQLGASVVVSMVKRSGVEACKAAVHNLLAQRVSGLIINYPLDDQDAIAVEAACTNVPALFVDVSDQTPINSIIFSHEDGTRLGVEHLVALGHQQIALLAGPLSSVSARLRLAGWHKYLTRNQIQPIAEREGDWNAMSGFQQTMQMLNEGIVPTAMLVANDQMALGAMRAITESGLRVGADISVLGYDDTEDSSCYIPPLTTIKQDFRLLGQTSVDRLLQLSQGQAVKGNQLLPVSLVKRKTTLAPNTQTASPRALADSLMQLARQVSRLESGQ
T2 sequence (P03023 whole entry V94M/S190C/G200A/Q209R/R263H/Q317L): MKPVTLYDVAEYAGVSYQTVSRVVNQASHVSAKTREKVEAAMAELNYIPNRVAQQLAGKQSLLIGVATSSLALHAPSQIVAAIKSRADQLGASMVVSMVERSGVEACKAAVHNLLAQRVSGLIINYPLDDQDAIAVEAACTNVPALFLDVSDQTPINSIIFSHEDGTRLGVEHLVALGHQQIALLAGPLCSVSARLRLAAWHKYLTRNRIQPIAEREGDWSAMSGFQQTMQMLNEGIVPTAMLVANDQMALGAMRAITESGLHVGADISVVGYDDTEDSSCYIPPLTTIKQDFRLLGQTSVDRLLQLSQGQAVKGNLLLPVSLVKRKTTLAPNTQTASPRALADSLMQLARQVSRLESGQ
T4 sequence (P03023 whole entry V80L/A87P/V301M/E357G): as the sequence (P03023 whole entry V94M/S190C/G200A/Q209R/R263H/Q317L) above, with V80L, A87P, M94V, C190S, A200G, R209Q, H263R, V301M, L317Q, E357G counted along it
T10 sequence (P03023 whole entry G91D/V94A/R101G/S158C/T167M/E172D/A176S/F226Y/T276S/T299A): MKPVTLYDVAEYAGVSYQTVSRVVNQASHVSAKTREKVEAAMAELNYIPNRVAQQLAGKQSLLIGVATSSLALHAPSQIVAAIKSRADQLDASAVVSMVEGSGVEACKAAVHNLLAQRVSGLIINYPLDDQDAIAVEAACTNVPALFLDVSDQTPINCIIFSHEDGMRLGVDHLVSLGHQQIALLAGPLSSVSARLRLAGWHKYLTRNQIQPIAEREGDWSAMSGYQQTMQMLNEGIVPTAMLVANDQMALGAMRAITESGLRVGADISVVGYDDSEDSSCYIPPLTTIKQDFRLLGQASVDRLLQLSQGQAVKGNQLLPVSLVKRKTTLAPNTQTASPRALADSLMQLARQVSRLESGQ
T7 sequence (P03023 whole entry P76Q/V150A/N157D/Q181H/I210L/M254T/I283N): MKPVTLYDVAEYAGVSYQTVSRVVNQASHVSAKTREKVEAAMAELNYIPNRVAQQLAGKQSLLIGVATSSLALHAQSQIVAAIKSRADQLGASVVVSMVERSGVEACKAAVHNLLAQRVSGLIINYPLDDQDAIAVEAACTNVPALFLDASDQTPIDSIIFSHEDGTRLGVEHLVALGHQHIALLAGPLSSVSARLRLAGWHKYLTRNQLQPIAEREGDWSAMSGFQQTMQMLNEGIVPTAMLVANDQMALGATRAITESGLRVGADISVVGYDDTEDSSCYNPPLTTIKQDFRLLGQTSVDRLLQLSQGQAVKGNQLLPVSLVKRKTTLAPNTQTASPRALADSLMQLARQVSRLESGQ
T3 sequence (P03023 whole entry P285S/V301M/S308P/M347V): as the sequence (P03023 whole entry V94M/S190C/G200A/Q209R/R263H/Q317L) above, with M94V, C190S, A200G, R209Q, H263R, P285S, V301M, S308P, L317Q, M347V counted along it
T9 sequence (P03023 whole entry A72V/K84N/I210F/M254T/T336S): as the sequence (P03023 whole entry P76Q/V150A/N157D/Q181H/I210L/M254T/I283N) above, with A72V, Q76P, K84N, A150V, D157N, H181Q, L210F, N283I, T336S counted along it
T12 sequence (P03023 whole entry K84E/D88Y/L90P/Q153L/A199V/L342M/R351P/S358R): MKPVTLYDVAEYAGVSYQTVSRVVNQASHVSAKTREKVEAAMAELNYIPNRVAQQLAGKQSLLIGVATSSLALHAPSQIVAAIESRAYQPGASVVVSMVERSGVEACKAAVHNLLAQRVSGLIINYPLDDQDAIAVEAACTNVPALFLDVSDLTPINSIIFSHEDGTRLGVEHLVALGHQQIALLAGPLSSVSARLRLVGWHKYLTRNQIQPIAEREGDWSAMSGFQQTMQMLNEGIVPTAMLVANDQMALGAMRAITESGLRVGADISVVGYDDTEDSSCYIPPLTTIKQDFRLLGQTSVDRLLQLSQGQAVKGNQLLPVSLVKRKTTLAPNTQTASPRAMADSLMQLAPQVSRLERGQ
T5 sequence (P03023 whole entry S70R/A87P/V301M/E357G): as the sequence (P03023 whole entry V94M/S190C/G200A/Q209R/R263H/Q317L) above, with S70R, A87P, M94V, C190S, A200G, R209Q, H263R, V301M, L317Q, E357G counted along it
T11 sequence (P03023 whole entry V96E/V136E/T154I/S158R/V238D/M254I/V264I): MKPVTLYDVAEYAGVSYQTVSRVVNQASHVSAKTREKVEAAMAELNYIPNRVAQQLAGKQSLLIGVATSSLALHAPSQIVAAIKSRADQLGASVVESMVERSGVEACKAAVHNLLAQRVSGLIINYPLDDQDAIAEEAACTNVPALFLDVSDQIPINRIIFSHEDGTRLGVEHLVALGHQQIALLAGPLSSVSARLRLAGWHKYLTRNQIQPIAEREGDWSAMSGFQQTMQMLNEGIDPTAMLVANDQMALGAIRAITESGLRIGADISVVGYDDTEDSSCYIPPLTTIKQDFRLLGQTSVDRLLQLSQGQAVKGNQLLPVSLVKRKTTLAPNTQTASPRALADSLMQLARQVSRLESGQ
T8 sequence (P03023 whole entry V99E/A116T/T141I/S190C): as the sequence (P03023 whole entry V94M/S190C/G200A/Q209R/R263H/Q317L) above, with M94V, V99E, A116T, T141I, A200G, R209Q, H263R, L317Q counted along it
T6 sequence (P03023 whole entry V96E/T154I/S158R/V238D/M254I/V264I): as the sequence (P03023 whole entry V96E/V136E/T154I/S158R/V238D/M254I/V264I) above, with E136V counted along it

`CC(C)S[C@@H]1O[C@H](CO)[C@H](O)[C@H](O)[C@H]1O` [IPTG, isopropyl-β-D-thiogalactopyranoside]: the EC50 was 3 µmol/L and 2.99 µmol/L in assay [1]; 27.8 µmol/L at pVER-IPTG-082; 8.46 µmol/L at pVER-IPTG-081; 36.8 µmol/L on pVER-IPTG-004(V80L); 3890 µmol/L at pVER-IPTG-004(S70R); 233 µmol/L on pVER-IPTG-002. In addition, the EC50 is 169 µmol/L on pVER-IPTG-009; 7.24 µmol/L at pVER-IPTG-079; 9.17 µmol/L on pVER-IPTG-010; 203 µmol/L on pVER-IPTG-005; 464000 µmol/L at pVER-IPTG-002(V136E); 29.4 µmol/L at pVER-IPTG-007.
